Source: ChEMBL document CHEMBL5726498, “Substituted benzothiophenyl derivatives as GPR40 agonists for the treatment of type II diabetes” (2017)

Target: Free fatty acid receptor 1 (Homo sapiens, UniProt O14842)
Experiment: Calcium Flux Assay: Compounds were tested in a calcium flux assay using transfected HEK293 cells stably expressing either human GPR40 or rat GPR40. Human GPR40 expressing cells were cultured in DMEM-High Glucose media supplemented with 10% fetal bovine serum, 1×L-Glutamine, 1× Penicillin/Streptomycin and 500 μg/mL G418. Rat GPR40 expressing cells were cultured in DMEM-High Glucose media supplemented with 10% fetal bovine serum and 1 μg/mL puromycin. Cells were plated into poly-D-lysine coated 384-well plates and cultured overnight in a 37° C. humidified tissue culture incubator under 5% CO2/[…] atmosphere. On the day of the experiment, the culture media was replaced with assay buffer (HBSS, 20 mM HEPES, 0.1% BSA) and the cells incubated at 37° C. for 1 h. Calcium-sensitive fluorescent dye (Fluo 8 No-Wash Calcium Dye, ABD Bioquest) was then added and the cells incubated for another 30 min at 37° C. followed by 15 min at room temperature while protected from the light. The cell plate and a plate of diluted compounds of Formula (I) were loaded into a fluorescent plate reader that added compounds onto the cells while measuring the fluorescence intensity of each well.

Sequence of Free fatty acid receptor 1 (O14842 whole entry): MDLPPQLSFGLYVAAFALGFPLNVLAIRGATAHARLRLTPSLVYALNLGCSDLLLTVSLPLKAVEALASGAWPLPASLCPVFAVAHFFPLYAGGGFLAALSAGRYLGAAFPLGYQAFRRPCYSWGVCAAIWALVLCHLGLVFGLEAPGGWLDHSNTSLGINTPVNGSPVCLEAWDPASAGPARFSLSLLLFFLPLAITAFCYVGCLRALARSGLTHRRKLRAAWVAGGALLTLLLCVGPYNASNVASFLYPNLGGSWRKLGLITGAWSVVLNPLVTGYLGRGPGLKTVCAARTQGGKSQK

SMILES: CC#C[C@@H](CC(=O)O)c1ccc(OCc2ccc3scc(-c4ccccc4S(C)(=O)=O)c3c2)cc1
- EC50: 15 nM
